Values of other authors, collected in patent US20070025931A1, “Powdery preparations containing 2.4.6-trianilino-p-(carbo-2'-ethylhexyl-1'-oxi)-1.3.5-triazine” (BASF Aktiengesellschaft, priority 2004, published 2007).

Conditions: at 314 nm

Compound: CCCCC(CC)COC(=O)c1ccc(Nc2nc(Nc3ccc(C(=O)OCC(CC)CCCC)cc3)nc(Nc3ccc(C(=O)OCC(CC)CCCC)cc3)n2)cc1 (stereo not shown) [Uvinul® T150, 2,4,6-Trianilino-p-(carbo-2′-ethylhexyl-1′-oxy)-1,3,5-triazine]
- absorbance coefficient: > 1500
